Experimental data from patent publication US20230097085A1, “[6R]-MTHF IN 5-FU BASED CHEMOTHERAPY OF RIGHT-SIDED COLORECTAL CANCER” (Isofol Medical AB, priority 2021, published 2023).

System: solid colorectal cancer tumors (metastatic colorectal cancer)
Assay: Clinical study ISO-CC-005 (safety extension cohorts #18/#19 and Follow-up study): tumour response by CT/MRI per RECIST 1.1
Assay type: in vivo, human
Excerpt: As used herein, the term ORR shall refer to the Objective Response Rate, ie. the proportion of patients with reduction in tumor burden of a predefined amount. […] (Note: the appearance of one or more new lesions is also considered progression). […] 2019. The completion of the study was announced in January 2020. In total, 105 patients were included in the study. Applicant completed the dose definition part of ISO-CC-005 in March 2018, which evaluated the safety and efficacy of arfolitixorin in patients with mCRC. Shortly after, applicant started two additional treatment groups in 2018 to generate more safety and efficacy data, i.e. the safety extension Cohort #18 (Treatment Arm #4) and Cohort #19 (Treatment Arm #6). The aim was to evaluate as many patients as possible from the additional treatment groups after a treatment period of 16 weeks+. On 30 Sep. 2020, applicant announced response assessment data from the two safety extension cohorts (31 patients) treated for 16 weeks or longer (press release: 55% Overall Response Rate on the safety extension cohorts of the ISO-CC-005 Phase Ulla study BioSpace). […] Out of the 31 patients, 17 were treated with an ARFOX regimen. Clinical Study ISO-CC-005 was an exploratory, […] multiple-centre study to be carried out in Stadium IV CRC patients. […] In the Main Study, patients received study treatment with arfolitixorin during eight (8) weeks. Patients eligible for the Follow-up study could participate until reaching progress, but no longer than 18 months. Enrolled patients, stadium IV CRC patients, were aware of the relatively poor prognosis of their disease. Those patients who could continue benefitting from treatment with a […] effective therapy, were offered the possibility to continue study treatment by participating in the Follow-up Study. In the Follow-up Study patients continued to receive the same treatment as assigned during the Main Study period. However, the Investigator could complete the allocated treatment with other therapeutic agents of choice in alignment with standard of care in order to adapt treatment to the patient's specific needs and, in this way, provide optimal care. Response was measured in short- and long-term assessments. During the Main Study phase, only short-term assessments of tumour response were explored by means of objective response rate (ORR) and early tumour shrinkage (ETS). These assessments were to be used as indicators of prognostic factor in ascertaining earlier non responders and to explore the correlation to other factors such as folate levels, tumour biomarkers, or expression levels of certain key genes. […]

## Nc1nc2c(c(=O)[nH]1)N1CN(c3ccc(C(=O)N[C@@H](CCC(=O)O)C(=O)O)cc3)C[C@H]1CN2 [arfolitixorin, [6R]-5,10-methylenetetrahydrofolate]
31 patients of the two safety extension cohorts treated 16 weeks or longer, 120 mg/m2 arfolitixorin + 5-FU with irinotecan or oxaliplatin (ARFIRI/ARFOX)
  best overall response rate (ORR): 55%
[6R]-MTHF and 5-FU, treatment period of at least 8 weeks, Phase I/IIa study ISO-CC-005
  progression of solid tumors between 8 and 16 weeks after initiating treatment: No statistically significant progression
right-sided CRC patients (13) of the 31-patient group, after 16 weeks and beyond, 120 mg/m2 arfolitixorin + 5-FU + irinotecan or oxaliplatin
  best ORR in patients diagnosed with RCRC: 46%
right-sided CRC patients incl. BRAF/KRAS mutation-positive, protocol over at least 16 weeks with multiple rapid boluses
  best ORRs (objective response rates) that can be achieved: > 50%
